2 molecules from patent US20080096830A1, “Anti-Inflammatory Macrolide Conjugates” (priority 2005, published 2008) can be followed below.

Some results are limits rather than exact numbers.

Usually IC50 stands for the concentration at which inhibition is half-maximal.

In assay [1] the test system is eosinophil number in BAL fluid. The assay is described as follows: Model of lung eosinophilia in mice. Format: in vivo, Balb/C mice. The note with it: OVA-sensitised mice, i.n. or i.p. dosing, compared to the vehicle treated control group. The protocol: Male Balb/C mice with a body weight of 20-25 g were randomly divided into groups, and sensitized by an i.p. injection of ovalbumin (OVA, Sigma) on day zero and day fourteen. On the twentieth day, the mice were subjected to a challenge test by i.n. (intranasal) application of OVA (positive control or test group) or PBS (negative control). 48 hours after i.n. application of OVA, the animals were anaesthetized and the lungs were rinsed with 1 mL of PBS. The cells were separated on a Cytospin 3 cytocentrifuge (Shandon). The cells were stained in Diff-Quick (Dade) and the percentage of eosinophils was determined by differential counting of at least 100 cells. The compounds were administered daily i.n. or i.p. in different doses 2 days before the provocative test and up to the completion of the test. Compounds were administered as suspension either in carboxymethyl cellulose or in lactose solution. Fluticasone and beclomethasone were used as standard anti-inflammatory substances for comparison.

Assay [2] has as its target T1, Human Prostaglandin-H Synthase-2 (hPGH-2), COX-2 (Homo sapiens, UniProt P35354).
T1 construct: expressed in transfected cells; host or cells: COS-7
T1 sequence (P35354 18-604): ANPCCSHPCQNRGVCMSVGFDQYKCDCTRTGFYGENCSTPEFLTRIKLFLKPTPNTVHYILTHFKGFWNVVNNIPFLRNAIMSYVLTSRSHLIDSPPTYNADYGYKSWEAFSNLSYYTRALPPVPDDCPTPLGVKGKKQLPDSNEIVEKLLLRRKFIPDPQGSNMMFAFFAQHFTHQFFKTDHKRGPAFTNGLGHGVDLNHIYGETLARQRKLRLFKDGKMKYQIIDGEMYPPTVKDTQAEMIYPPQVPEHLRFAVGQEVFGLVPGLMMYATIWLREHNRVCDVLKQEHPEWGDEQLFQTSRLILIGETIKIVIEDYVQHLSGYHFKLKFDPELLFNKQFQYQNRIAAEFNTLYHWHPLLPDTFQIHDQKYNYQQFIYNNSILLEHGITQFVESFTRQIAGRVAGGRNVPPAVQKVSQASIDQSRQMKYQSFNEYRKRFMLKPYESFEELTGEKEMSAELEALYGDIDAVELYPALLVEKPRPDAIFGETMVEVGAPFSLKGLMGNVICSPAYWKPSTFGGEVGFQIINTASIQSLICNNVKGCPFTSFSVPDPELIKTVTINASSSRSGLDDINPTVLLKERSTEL
As to the kind of experiment: Human prostaglandin-H synthase-2 (hPGH-2) inhibition assay in transfected COS-7 cells (PGE-2). The assay is classed as cell-based. The settings on record: COS-7 cells transfected with hPGH-2, arachidonic acid 20 μM, PGE-2 readout. The protocol:
The cells were grown in 10% fetal bovine serum (FBS) in DMEM medium (Invitrogen Life Technologies) at 37° C. in an atmosphere with 5% CO2 and 90% moisture. 20 000 cells/well were plated in 96 well plate (Falcon). The cells in a negative control were cultured only in medium (NC), while the secretion of TNF-α in a positive control was stimulated by the addition of 500 pg/mL lipopolysaccharide (LPS, E. coli serotype 0111:B4, Sigma) (PC). The effect of the tested substances on TNF-α secretion was assessed after their addition to cell cultures stimulated with LPS (TS). […] The percentage inhibition of TNF-α production was calculated by the following equation: % inhibition=[1-(TS-NC)/(PC-NC)]×100. IC50 value was defined as the concentration of the substance at which 50% of TNF-α production was inhibited. […] After 30 minutes supernatants were removed and prostoglandin E2 (PGE-2) was measured with a PGE-2 assay kit (Cayman) following the manufacturer's instructions. No production of PGE-2 was detected in negative controls. % inhibition was calculated by the following equation: % inhibition=(1-sample PGE-2 concentration/positive control PGE-2 concentration)*100.

Turning to `CCC1OC(=O)C(C)C(O)C(C)C(OC2OC(C)CC(N(C)C)C2O)C(C)(O)CC(C)CN(CCCNC(=O)C=Cc2cc3c(s2)-c2cc(C)ccc2Sc2ccccc2-3)C(C)C(O)C1(C)O` (centres unmarked) [Compound 21], the “inhibition of relative eosinophil number in BAL fluid” value in assay [1] was “statistically significant inhibition”. Turning to `CCC1OC(=O)C(C)C(OC2CC(C)(OC)C(O)C(C)O2)C(C)C(OC2OC(C)CC(N(C)CCCNC(=O)C=Cc3cc4c(s3)-c3cc(Cl)ccc3Sc3ccccc3-4)C2O)C(C)(O)CC(C)CN(C)C(C)C(O)C1(C)O` (centres unmarked) [Compound 15], the half-maximal inhibitory concentration (IC50) in assay [2] was under 10 µM.
